According to patent US10308618B2, “Blue light cutting optical material comprising a benzotriazole UV absorber” (ESSILOR INTERNATIONAL, priority 2016, dated 2019):

Columns and labels:
[1] = Solubilization of the benzotriazole UV absorber in the ISO monomer; type: physicochemical; settings: in isocyanate monomer, compared with comparative benzotriazole VII
Experimental: For polythiourethane matrix, solubility during processing and compatibility of inventive and comparative benzotriazoles were assessed in two stages. First, initial solubilization of the benzotriazole UV absorber in the isocyanate monomer was assessed.

[2] = Transmission spectra: transmittance and light cut-off wavelength; type: physicochemical
From the text: The light cut-off wavelength of the optical material is preferably higher than or equal to 400 nm, more preferably higher than or equal to 405 nm, and even more preferably higher than or equal to 410 nm. It is preferably lower than 465 nm, more preferably lower than 450 nm. In the present disclosure, the light cut-off wavelength is defined as the wavelength below which light transmission becomes lower than 1%. In other words, it is the highest wavelength for which the transmittance is lower than 1%. The higher the light cut-off wavelength, the better the blue light cutting properties.
In the present description, unless otherwise specified, optical transmittances/transmissions are measured at the center of the optical article for a thickness ranging from 0.7 to 2 mm, preferably 2 mm, at normal incidence. As used herein, optical transmittance within a wavelength range is an average of light transmitted within this range and is not weighted according to the sensitivity of the eye at each wavelength of the range, unless otherwise specified. Last, optical transmittance is measured for optical articles having no coatings, in particular no antireflective coatings.
The light cut-off wavelength was determined from the transmission spectra, which are shown on FIGS. 1 and 2. […]

## CCCCCCCCOC(=O)CCc1cc(-n2nc3ccc(Cl)cc3n2)c(O)c(C(C)(C)C)c1 [Benzotriazole IV, n-octyl-3-[3-tert-butyl-4-hydroxy-5-(5-chloro-2H-benzotriazol-2-yl)phenyl] propionate]
[1]
  Dissolution properties: improved dissolution properties

## octyl-3-[3-tert-butyl-4-hydroxy-5-(2H-benzotriazol-2-yl)-phenyl] propionate branched and linear alkyl esters [Eversorb® 82]
[2]; 2-mm thick layer of material
  optical transmittance for each light wavelength ranging from 280 to 400 nm: lower than 1%
[2]; 2 mm thick material, 430 nm
  T (%) at 430 nm: higher than 65%
